Laboratory results as given in patent US5405859A (priority 1993, dated 1995).
≈ marks a conversion by molar mass, not a printed value. Read-outs that look alike come from different tables or passages of the source.

Columns and labels:
SNB-19 cells = experiment: Cancer cell screen (NCI protocol), SNB-19; settings: Homo sapiens, SNB-19, read-out: LOGIC50(W)
A498 cells = experiment: Cancer cell screen (NCI protocol), A498; settings: Homo sapiens, A498, read-out: LOGIC50(W)
H520 cells = experiment: Cancer cell screen (NCI protocol), H520; settings: Homo sapiens, NCI-H520, read-out: LOGIC50(W)
HT29 cells = experiment: Cancer cell screen (NCI protocol), HT29; settings: Homo sapiens, HT-29, read-out: LOGIC50(W)
LOVO cells = experiment: Cancer cell screen (NCI protocol), LOVO; settings: Homo sapiens, read-out: LOGIC50(W)
SK-MEL5 cells = experiment: Cancer cell screen (NCI protocol), SK-MEL5; settings: Homo sapiens, SK-MEL-5, read-out: LOGIC50(W)
HL-60 cells = experiment: Cancer cell screen (NCI protocol), HL-60; settings: Homo sapiens, HL-60, read-out: LOGIC50(W)
[1] = Initial screening, relative activities of the patellazoles
OVCAR-5 cells = experiment: Cancer cell screen (NCI protocol), OVCAR-5; settings: Homo sapiens, OVCAR-5, read-out: LOGIC50(W)
MOLT-4 cells = experiment: Cancer cell screen (NCI protocol), MOLT-4; settings: Homo sapiens, MOLT-4, read-out: LOGIC50(W)
P388/AD cells = experiment: Cancer cell screen (NCI protocol), P388/AD; settings: Mus musculus, P388, read-out: LOGIC50(W)
SN-12KI cells = experiment: Cancer cell screen (NCI protocol), SN-12KI; settings: read-out: LOGIC50(W)
P388 cells = experiment: Cancer cell screen (NCI protocol), P388; settings: Mus musculus, P388, read-out: LOGIC50(W)
SNB-75 cells = experiment: Cancer cell screen (NCI protocol), SNB-75; settings: Homo sapiens, SNB-75, read-out: LOGIC50(W)
OVCAR-4 cells = experiment: Cancer cell screen (NCI protocol), OVCAR-4; settings: Homo sapiens, OVCAR-4, read-out: LOGIC50(W)
H322 cells = experiment: Cancer cell screen (NCI protocol), H322; settings: NCI-H322, read-out: LOGIC50(W)
U-251 cells = experiment: Cancer cell screen (NCI protocol), U-251; settings: Homo sapiens, U-251, read-out: LOGIC50(W)
MCF-7 cells = experiment: Cancer cell screen (NCI protocol), MCF-7; settings: Homo sapiens, MCF7, read-out: LOGIC50(W)
H460 cells = experiment: Cancer cell screen (NCI protocol), H460; settings: Homo sapiens, NCI-H460, read-out: LOGIC50(W)
A2780 cells = experiment: Cancer cell screen (NCI protocol), A2780; settings: Homo sapiens, A2780, read-out: LOGIC50(W)
UO-31 cells = experiment: Cancer cell screen (NCI protocol), UO-31; settings: Homo sapiens, UO-31, read-out: LOGIC50(W)
A704 cells = experiment: Cancer cell screen (NCI protocol), A704; settings: Homo sapiens, A704, read-out: LOGIC50(W)
[2] = tested on: standard group of cancer cells; experiment: Screen against standard group of cancer cells, whole panel; settings: for .DELTA / .RANGE: log IC50, cell panel; for IC50: read-out: .AV.LOG IC50; for relative activity: review of Tables IV-VI
EKV-X cells = experiment: Cancer cell screen (NCI protocol), EKV-X; settings: Homo sapiens, EKVX, read-out: LOGIC50(W)
MCF-7/A cells = experiment: Cancer cell screen (NCI protocol), MCF-7/A; settings: MCF7a, read-out: LOGIC50(W)
SK-MES1 cells = experiment: Cancer cell screen (NCI protocol), SK-MES1; settings: Homo sapiens, SK-MES-1, read-out: LOGIC50(W)
TE-671 cells = experiment: Cancer cell screen (NCI protocol), TE-671; settings: Homo sapiens, TE-671, read-out: LOGIC50(W)
SW620 cells = experiment: Cancer cell screen (NCI protocol), SW620; settings: Homo sapiens, SW-620, read-out: LOGIC50(W)
OVCAR-8 cells = experiment: Cancer cell screen (NCI protocol), OVCAR-8; settings: Homo sapiens, OVCAR-8, read-out: LOGIC50(W)
A549 cells = experiment: Cancer cell screen (NCI protocol), A549; settings: Homo sapiens, A549, read-out: LOGIC50(W)
SNB-44 cells = experiment: Cancer cell screen (NCI protocol), SNB-44; settings: SNB44, read-out: LOGIC50(W)
HSV-2 = experiment: Antiviral testing, HSV-2; format: cell-based, herpes virus HSV-2; settings: for HSV-2 (antiviral concentration): Vero host cells, kind of endpoint not given; for activity against herpes virus HSV-2: at concentrations not toxic for host cells (Vero)
From the text: (§1) Substantially pure compounds of Patellazole B and C were screened for activity. These extracts from a marine tunicate (L. patella) were submitted for antiviral testing.

VERO = experiment: Cytotoxicity in Vero host cells; format: cell-based; settings: for Cytotoxicity Vero: Vero cells, kind of endpoint not given; for toxicity for the host cells: Vero, at concentrations active against HSV-1 and HSV-2
From the text: as §1

HSV-1 = experiment: Antiviral testing, HSV-1; format: cell-based, herpes virus HSV-1; settings: for HSV-L (antiviral concentration): Vero host cells, kind of endpoint not given; for activity against herpes virus HSV-1: at concentrations not toxic for host cells (Vero)
From the text: as §1

LOX cells = experiment: Cancer cell screen (NCI protocol), LOX; settings: read-out: LOGIC50(W)
A322 cells = experiment: Cancer cell screen (NCI protocol), A322; settings: read-out: LOGIC50(W)
[3] = Patellazole B versus Patellazole C

| Structure (SMILES) | IC50 (SNB-19 cells) [ng/mL] | IC50 (A498 cells) [ng/mL] | IC50 (HT29 cells) [ng/mL] | IC50 (LOVO cells) [ng/mL] | IC50 (SK-MEL5 cells) [ng/mL] | relative activities of the patellazoles [1] | IC50 (OVCAR-5 cells) [ng/mL] | IC50 (MOLT-4 cells) [ng/mL] | IC50 (SN-12KI cells) [ng/mL] | IC50 (P388 cells) [ng/mL] | IC50 (SNB-75 cells) [ng/mL] | IC50 (OVCAR-4 cells) [ng/mL] | IC50 (U-251 cells) [ng/mL] | IC50 (H460 cells) [ng/mL] | IC50 (A2780 cells) [ng/mL] | IC50 (A704 cells) [ng/mL] | .DELTA [2] | .RANGE [2] | IC50 [2] [ng/mL] | IC50 (EKV-X cells) [ng/mL] | further results |
| --- | --- | --- | --- | --- | --- | --- | --- | --- | --- | --- | --- | --- | --- | --- | --- | --- | --- | --- | --- | --- | --- |
| CCC(C)C(=O)OC1(C)CCC(C)CC(O)C(C)C(=O)C(C)/C=C\CC(C)C(O)C(O)C(OC)/C(C)=C/C=C/C(C)C(C(C)(O)/C=C(/C)Cc2csc(C3(C)OC3C)n2)OC1=O (centres unmarked) [Patellazole A] | 0.0794 (≈ 0.0894 nM) | 0.0631 (≈ 0.071 nM) | < 0.0316 | 0.0794 (≈ 0.0894 nM) | 0.158 (≈ 0.178 nM) | A>B>C | 0.0501 (≈ 0.0564 nM) | 0.0794 (≈ 0.0894 nM) | < 0.0316 | 0.1 (≈ 0.113 nM) | 6.31 (≈ 7.1 nM) | 0.1 (≈ 0.113 nM) | < 0.0316 | 0.0398 (≈ 0.0448 nM) | 0.0398 (≈ 0.0448 nM) | 0.1 (≈ 0.113 nM) | 0.5 | 2.3 | 0.0977 (≈ 0.11 nM) | 0.0794 (≈ 0.0894 nM) | IC50 (H520 cells): 0.794 ng/mL (≈ 0.894 nM); IC50 (HL-60 cells): 0.126 ng/mL (≈ 0.142 nM); IC50 (P388/AD cells): 0.126 ng/mL (≈ 0.142 nM); IC50 (H322 cells): 0.126 ng/mL (≈ 0.142 nM); IC50 (MCF-7 cells): 0.126 ng/mL (≈ 0.142 nM); IC50 (UO-31 cells): 0.126 ng/mL (≈ 0.142 nM); relative activity [2]: slightly more active than Patellazole B; IC50 (MCF-7/A cells): 0.501 ng/mL (≈ 0.564 nM); IC50 (SK-MES1 cells): < 0.0316 ng/mL; IC50 (TE-671 cells): < 0.0316 ng/mL; IC50 (SW620 cells): 0.1 ng/mL (≈ 0.113 nM); IC50 (OVCAR-8 cells): 0.1 ng/mL (≈ 0.113 nM) |
| COC1/C(C)=C/C=C/C(C)C(C(C)(O)/C=C(/C)Cc2csc(C3(C)OC3C)n2)OC(=O)C(C)(OC(=O)C(C)C(C)O)CCC(C)CC(O)C(C)C(=O)C(C)/C=C\CC(C)C(O)C1O (centres unmarked) [Patellazole B] | < 0.0316 | < 0.0316 | < 0.0316 | < 0.0316 | < 0.0316 | A>B>C | < 0.0316 | < 0.0316 | < 0.0316 | < 0.0316 | < 0.0316 | < 0.0316 | < 0.0316 | < 0.0316 | < 0.0316 | < 0.0316 | 0 | 0 | 0.0316 (≈ 0.035 nM) | < 0.0316 | IC50 (A549 cells): < 0.0316 ng/mL; IC50 (SNB-44 cells): < 0.0316 ng/mL; IC50 (P388/AD cells): < 0.0316 ng/mL; relative antiviral activity against HSV-2 (HSV-2; [3]): significantly more potent; HSV-2 (antiviral concentration) (HSV-2): 0.06 µg/mL; activity against herpes virus HSV-2 (HSV-2): showed activity; IC50 (H322 cells): < 0.0316 ng/mL; IC50 (MCF-7 cells): < 0.0316 ng/mL; Cytotoxicity Vero (VERO): 0.75 µg/mL; toxicity for the host cells (VERO): not toxic; relative antiviral activity against HSV-1 (HSV-1; [3]): significantly more potent; HSV-L (antiviral concentration) (HSV-1): 0.0005 µg/mL; activity against herpes virus HSV-1 (HSV-1): showed activity; IC50 (UO-31 cells): < 0.0316 ng/mL; relative activity [2]: significantly more active than Patellazole C; IC50 (LOX cells): < 0.0316 ng/mL; IC50 (MCF-7/A cells): < 0.0316 ng/mL; IC50 (SK-MES1 cells): < 0.0316 ng/mL; IC50 (TE-671 cells): < 0.0316 ng/mL; IC50 (SW620 cells): < 0.0316 ng/mL |
| COC1/C(C)=C/C=C/C(C)C(C(C)(O)/C=C(/C)Cc2csc(C3(C)OC3C)n2)OC(=O)C(C)(OC(=O)C(C)C(C)O)CCC(C)CC(O)C(C)C(=O)C(CO)/C=C\CC(C)C(O)C1O (centres unmarked) [Patellazole C] | 10 (≈ 10.9 nM) | 10 (≈ 10.9 nM) | 1 (≈ 1.09 nM) | 6.31 (≈ 6.86 nM) | 12.6 (≈ 13.7 nM) | generally less active | 2.51 (≈ 2.73 nM) | 7.94 (≈ 8.63 nM) | 10 (≈ 10.9 nM) | 12.6 (≈ 13.7 nM) | > 31.6 | 7.94 (≈ 8.63 nM) | 7.94 (≈ 8.63 nM) | 7.94 (≈ 8.63 nM) | 5.01 (≈ 5.45 nM) | 79.4 (≈ 86.3 nM) | 1.1 | 2.5 | 10.2 (≈ 11.1 nM) | 10 (≈ 10.9 nM) | relative activities of the patellazoles ([1]; listed as C): A>B>C; HSV-2 (antiviral concentration) (HSV-2): 0.80 µg/mL; activity against herpes virus HSV-2 (HSV-2): showed activity; Cytotoxicity Vero (VERO): 4.0 µg/mL; toxicity for the host cells (VERO): not toxic; HSV-L (antiviral concentration) (HSV-1): 0.30 µg/mL; activity against herpes virus HSV-1 (HSV-1): showed activity; IC50 (MCF-7/A cells): > 316 ng/mL; IC50 (SK-MES1 cells): 7.94 ng/mL (≈ 8.63 nM); IC50 (A322 cells): 7.94 ng/mL (≈ 8.63 nM); IC50 (TE-671 cells): 7.94 ng/mL (≈ 8.63 nM); IC50 (OVCAR-8 cells): 10 ng/mL (≈ 10.9 nM) |
